Read-outs that look alike come from different tables or passages of the source.

In assay [1] the test system is C. albicans biofilm. The assay is described as follows: Fungal biofilm inhibition assay. The format is cell-based, Candida albicans. As to conditions: sustained inhibition assay, 1% amino acid, p≤0.001. As for the experimental part: (§1) For fungal biofilm assays, all solutions were prepared in RPMI 1640 medium. All bacterial biofilm solutions were prepared in Trypic Soy Broth (TSB), supplemented with 1% glucose (henceforth referred to as TSB-G). All subsequent procedures were performed in a manner that maintained sterility. A solution of each amino acid to be tested was prepared in weight to volume concentrations ranging from 0.1-5.0%. Amino acids were also tested in combinations. Compound solutions were homogenized with gentle agitation in the dark (4° C., 24 hours) before use.
(§2) All biofilm assays were performed using 384-well non-tissue culture treated polystyrene plates. The fungal species tested are as follows: Candida albicans, Candida guilliermondii Candida parapsilosis, Candida glabrata, Candida tropicalis and Candida dubliniensis. The bacterial species tested are as follows: Staphylococcus aureus (standard wild type and methicillin-resistant strain USA300), Escherichia coli, Pseudomonas aeruginosa and Staphylococcus epidermidis.
(§3) Fungal strains were streaked on Yeast Peptone Dextrose (YPD) agar plates and incubated at 30° C. for 48 hours. A single colony from each strain to be tested was inoculated into YPD broth and grown for 12 hours, at 30° C., shaking at 225 rpm. For the fungal biofilm inhibition assay, 1 μl of saturated overnight cell culture was added to either 80 μL of RPMI-1640 or RPMI-1640 supplemented with the amino acid compound solution to be tested, in a 384-well plate. The cells were allowed to adhere to the plate for 90 minutes at 37° C. with shaking (350 rpm). Loosely bound cells were washed once with phosphate buffered saline (PBS) and 80 ul of RPMI-1640, or RPMI-1640 supplemented with the amino acid compound solution was added to the plate. The plate was further incubated for 24 hours at 37° C. with shaking (350 rpm). Media was carefully aspirated and the biofilm was measured for fungal cell concentration by optical density at 600 nm. Twelve replicates were performed for each tested condition and the reported values were normalized to the control (RPMI-1640 media only).

Assay [2] has as its system C. albicans biofilm. The assay is described as follows: Fungal biofilm disruption assay. As to conditions: 1% amino acid, p≤0.001. The format is cell-based, Candida albicans. As for the experimental part:
as §1, §2
(§4) For the fungal biofilm disruption assays, 80 μL of RPMI-1640 was added to the plate, along with 1 μL of overnight cell culture. The cells were allowed to adhere to the plate for 90 minutes at 37° C. with shaking (350 rpm). Loosely bound cells were washed once with PBS and 80 μL of RPMI-1640 was added to the plate. The plate was further incubated for 24 hours at 37° C. with shaking (350 rpm). Media was carefully aspirated from the mature biofilm and 80 μL of RPMI-1640, or RPMI-1640 supplemented with the amino acid compound solution to be tested, was gently added to the plate. The plate was further incubated for 24 hours at 37° C. with shaking (350 rpm). Media was carefully aspirated and the biofilm was measured for fungal cell concentration by optical density at 600 nm. Twelve replicates were performed for each tested condition and the reported values are normalized to the control (RPMI-1640 media only).

In assay [3] the test system is S. aureus biofilm. The assay is described as follows: Bacterial biofilm disruption assay. The format is cell-based. Particulars: Staphylococcus aureus; for inhibition at 1 %: read-out: Reduce B Biofilm; for activation at 1 %: read-out: Promote B Biofilm. As for the experimental part:
as §1, §2
(§5) Bacterial strains were streaked on Blood Agar plates (5% sheep blood in Tryptic Soy Broth) and incubated at 37° C. for 24 hours. A single colony from each strain to be tested was inoculated in a TSB broth and grown for 12 hours, at 37° C. with shaking (225 rpm).
(§6) For the bacterial biofilm disruption assays, 80 μL of TSB-G was added to the plate, along with 1 μL of overnight cell culture. The cells were allowed to adhere to the plate for 60 minutes at 37° C. without shaking. The media was carefully aspirated and 80 μL of TSB-G was added to the plate. The plate was further incubated for 24 hours at 37° C. without shaking. Media was carefully aspirated from the mature biofilm and 80 μL of TSB-G, or TSB-G supplemented with the amino acid to be tested, was gently added to the plate. The plate was further incubated for 24 hours at 37° C. without shaking. Media was aspirated and the biofilm was measured for bacterial cell concentration by optical density at 600 nm. Twelve replicates were performed for each tested condition and the reported values were normalized to the control (TSB-G media only).

Assay [4] relates to fungal biofilms. The assay is described as follows: Fungal biofilm assays (sustained inhibition and/or disruption). The format is cell-based, Candida albicans. Particulars: at least one of the two assays (sustained inhibition and/or disruption); for anti-biofilm properties against fungal biofilms: administered individually. The method, then:
as §1, §2, §3, §4

The subject of assay [5] is bacterial biofilms. Kind of assay: Bacterial biofilm assays (sustained inhibition and/or disruption). As to conditions: for anti-biofilm properties against bacterial biofilms: individually, about 0.1 to about 5.0% weight to volume (cystathionine 0.2%), at least one of the two assays; for support (improve) bacterial biofilm growth: based on the two assays (sustained inhibition and/or disruption). The format is cell-based, Staphylococcus aureus. The method, then: as §1, §2, §5
(§7) For the bacterial biofilm inhibition assays, 1 μL of saturated overnight cell culture was added to either 80 μL of TSB-G, or TSB-G supplemented with the amino acid compound solution to be tested, in a 384-well plate. The cells were allowed to adhere to the plate for 60 minutes at 37° C. without shaking. The media was carefully aspirated and 80 μL of TSB-G, or TSB-G supplemented with the amino acid compound solution was added to the plate. The plate was further incubated for 24 hours at 37° C. without shaking. Media was carefully aspirated and the biofilm was measured for bacterial cell concentration by optical density at 600 nm. Eight or twelve replicates were performed for each tested condition and the reported values were normalized to the control (TSB-G media only).
as §6

Assay [6] has as its system S. aureus biofilm. The assay is described as follows: Bacterial biofilm inhibition assay. The format is cell-based, Staphylococcus aureus. As to conditions: for activation at 1 %: Staphylococcus aureus, read-out: Promote B Biofilm. As for the experimental part: as §1, §2, §5, §7
The test system of assay [7] is bacterial and fungal biofilms. Kind of assay: In vitro testing on bacterial and fungal biofilms. The format is cell-based. Particulars: in vitro. The method, then:
as §1, §2, §3, §4, §5
as §7, with “nm.” for “nm. Eight or twelve replicates were performed for each tested condition and the reported values were normalized to the control (TSB-G media only).”

The mark [8] stands for this setting: disruption assay, S. aureus, 1% amino acid, p≤0.001.
Where [9] appears, read: sustained inhibition assay, S. aureus, 1% amino acid, p≤0.001.

`Cn1cncc1C[C@H](N)C(=O)O` [3-Methylhistidine, 3-methyl-L-histidine]: the “Promote F Biofilm” value in assay [1] and in assay [2] was “• (a single dot (●) signifies an effect in a range of about 10 to about 30% change)” throughout. In addition, the inhibition at 1 % in assay [3] (setting [8]) is 10 to 30%. For the same molecule, the “support (improve) fungal biofilm growth” value in assay [4] is recorded as “support (improve) fungal biofilm growth”. In assay [5], the “anti-biofilm properties against bacterial biofilms” value is reported as “anti-biofilm properties against bacterial biofilms”.
For `N=C(N)NCCC[C@H](N)C(=O)O` [Arginine, L-arginine], the activation at 1 % in assay [6] and in assay [3] was 10 to 30% throughout. Besides, the “support (improve) bacterial biofilm growth” value in assay [5] is recorded as “support (improve) bacterial biofilm growth”. Also, the “effect on bacterial and fungal biofilm (in words)” value (“effect” for short) in assay [7] was “promote bacterial and fungal biofilm”.
For the molecule `NCCO` [Ethanolamine, ethanolamine], in assay [1], the “Reduce F Biofilm” value was “• (a single dot (●) signifies an effect in a range of about 10 to about 30% change)”. The “anti-biofilm properties against fungal biofilms” value in assay [4] was “anti-biofilm properties against fungal biofilms”. Also, in assay [5], the “anti-biofilm properties against bacterial biofilms” value is “anti-biofilm properties against bacterial biofilms”.
On to `NCC(=O)O` [Glycine, L-glycine], for which the activation at 1 % in assay [6] (setting [9]) and in assay [3] (setting [8]) was 10 to 30% throughout. For the same molecule, the “support (improve) bacterial biofilm growth” value in assay [5] is listed as “support (improve) bacterial biofilm growth”. The “effect” value in assay [7] was “promote bacterial and fungal biofilm”.
Regarding `N[C@@H](CCS)C(=O)O` [Homocysteine, L-homocysteine], in assay [4], the “anti-biofilm properties against fungal biofilms” value is on record as “anti-biofilm properties against fungal biofilms”. The “anti-biofilm properties against bacterial biofilms” value in assay [5] was “anti-biofilm properties against bacterial biofilms”.
On to `O=C(O)[C@@H]1C[C@@H](O)CN1` [Hydroxyproline, Trans-4-hydroxy-L-proline], for which the “Reduce F Biofilm” value in assay [1] was “• (a single dot (●) signifies an effect in a range of about 10 to about 30% change)”. Further, the “Reduce B Biofilm” value in assay [6] (setting [9]) is listed as “• (a single dot (●) signifies an effect in a range of about 10 to about 30% change)”. Besides, the inhibition at 1 % in assay [3] is 10 to 30%. For the same molecule, in assay [4], the “anti-biofilm properties against fungal biofilms” value is recorded as “anti-biofilm properties against fungal biofilms”. For the same molecule, the “anti-biofilm properties against bacterial biofilms” value in assay [5] is reported as “anti-biofilm properties against bacterial biofilms”.
Turning to `CC(C)C[C@H](N)C(=O)O` [Leucine, L-leucine], the activation at 1 % in assay [6] (setting [9]) and in assay [3] (setting [8]) was 10 to 30% in each case. For the same molecule, the “support (improve) bacterial biofilm growth” value in assay [5] was “support (improve) bacterial biofilm growth”. In assay [7], the “effect” value was “promote bacterial and fungal biofilm”.
As to `NCCCC[C@H](N)C(=O)O` [Lysine, L-lysine], the activation at 1 % in assay [6] and in assay [3] was 10 to 30% throughout. For the same molecule, the “support (improve) bacterial biofilm growth” value in assay [5] is given as “support (improve) bacterial biofilm growth”. For the same molecule, in assay [7], the “effect” value was “promote bacterial and fungal biofilm”.
Take `N[C@@H](Cc1ccccc1)C(=O)O` [Phenylalanine, L-phenylalanine]: the activation at 1 % in assay [6] (setting [9]) and in assay [3] (setting [8]) was 10 to 30% each time. In addition, the “support (improve) bacterial biofilm growth” value in assay [5] is given as “support (improve) bacterial biofilm growth”. For the same molecule, the “effect” value in assay [7] was “promote bacterial and fungal biofilm”.
For `NCCOP(=O)(O)O` [Phosphoethanolamine, O-phosphoethanolamine], the “Reduce B Biofilm” value in assay [6] (setting [9]) is listed as “• (a single dot (●) signifies an effect in a range of about 10 to about 30% change)”. Moreover, the inhibition at 1 % in assay [3] (setting [8]) is 10 to 30%. Besides, in assay [5], the “anti-biofilm properties against bacterial biofilms” value is given as “anti-biofilm properties against bacterial biofilms”.
Regarding `N[C@@H](COP(=O)(O)O)C(=O)O` [Phosphoserine, O-phospho-L-serine], in assay [2], the “Reduce F Biofilm” value is recorded as “• (a single dot (●) signifies an effect in a range of about 10 to about 30% change)”. The inhibition at 1 % in assay [3] (setting [8]) fell in the range of 10 to 30%. In addition, the “anti-biofilm properties against fungal biofilms” value in assay [4] was “anti-biofilm properties against fungal biofilms”. The “anti-biofilm properties against bacterial biofilms” value in assay [5] is “anti-biofilm properties against bacterial biofilms”.
On to `N[C@@H](CO)C(=O)O` [Serine, L-serine], for which the activation at 1 % in assay [6] (setting [9]) and in assay [3] (setting [8]) was 10 to 30% in each case. In addition, in assay [5], the “support (improve) bacterial biofilm growth” value is listed as “support (improve) bacterial biofilm growth”. Moreover, in assay [7], the “effect” value is “promote bacterial and fungal biofilm”.
Consider `NCCS(=O)(=O)O` [Taurine, L-taurine], for which the activation at 1 % in assay [6] (setting [9]) and in assay [3] (setting [8]) was 10 to 30% each time. For the same molecule, the “support (improve) bacterial biofilm growth” value in assay [5] is recorded as “support (improve) bacterial biofilm growth”.
Regarding `CC(C)[C@H](N)C(=O)O` [Valine, L-valine], the “Promote F Biofilm” value in assay [1] and in assay [2] was “• (a single dot (●) signifies an effect in a range of about 10 to about 30% change)” throughout. Further, the “support (improve) fungal biofilm growth” value in assay [4] is reported as “support (improve) fungal biofilm growth”. In assay [7], the “effect” value was “promote bacterial and fungal biofilm”.

The values are drawn from US20180153840A1, “THE COMPOSITIONS OF GLYCEROL AND /OR NON-TOXIC AMINO ACIDS FOR INHIBITING AND DESTROYING BIOFILM, INCLUDING RELATED METHODS” (priority 2015, published 2018).
